From US7402606B2, “Derivatives of 1-(oxoaminoacetyl) pentylcarbamate as cathepsin K inhibitors for the treatment of bone loss” (SmithKline Beecham Corporation, priority 2002, dated 2008)

Target: T1, human cathepsin K (Homo sapiens, UniProt P43235)
T1 construct: The proform of cathepsin K was converted to mature cathepsin K by brief exposure to pH 4; made in house; host or cells: baculovirus; Trichoplusia ni High Five cells (virus raised in Sf-9)
T1 sequence (P43235 115-329): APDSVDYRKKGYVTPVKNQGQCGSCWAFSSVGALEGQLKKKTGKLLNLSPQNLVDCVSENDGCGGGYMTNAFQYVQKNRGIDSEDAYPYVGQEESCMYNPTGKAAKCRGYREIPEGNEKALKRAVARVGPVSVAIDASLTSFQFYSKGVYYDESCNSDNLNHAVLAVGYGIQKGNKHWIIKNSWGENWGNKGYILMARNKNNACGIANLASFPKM
Assay: Cathepsin K inhibition assay, human recombinant enzyme, fluorogenic substrate Cbz-Phe-Arg-AMC
Format: biochemical
Details: Table 1, human cathepsin K; read-out: h Cat K IC50
Procedure: All assays for cathepsin K were carried out with human and rat recombinant enzyme. Assays for cathepsins S ? V were also carried out with human recombinant enzyme. Assays for human cathepsins B, H, and L were carried out with enzyme, purchased from Athens Research and Technology, Inc., prepared from human liver tissue. […] A stock substrate solution of Cbz-Phe-Arg-AMC was prepared at a concentration of 50 mM in dimethyl sulfoxide. This substrate was diluted into the assay for a final substrate concentration of 10 μM in the rat cathepsin K, human cathepsin K, and human cathepsin B assays; a final substrate concentration of 5 μM in the human cathepsin L assay; and a final substrate concentration of 2 μM in the human cathepsin V assay.
All assays contained 10% dimethyl sulfoxide. […] All assays were conducted at 30° C. Product fluorescence (excitation at 360 nm; emission at 440 nm, (except cathepsin H which used excitation at 340 nm; emission at 420 nm)) was monitored with a PerSeptive Biosystems Cytofluor II fluorescence plate reader. Product progress curves were generated over 2.3 h monitoring the formation of 7-amino-4-methylcoumarin product (or β-naphthalamide for cathepsin H).
Human and rat Cathepsin K:
Two liters of Spodoptera frugiperda (Sf-9) cells (ATCC) were grown in Grace's Supplemented medium (Life Technologies) supplemented with 2 g/L glucose, 10% fetal bovine serum (HyClone) and 0.1% pluronic F-68 (Life Technologies). […] The cells continued to grow for 72 h post-infection, before the virus was harvested by centrifugation at 1400×g for 30 min.
One and one-half liters of Trichoplusia ni (T. ni) High Five (™) cells [JRH Biosciences, Woodland, Calif. […] The cells were grown for 24 h at 28° C., 50 RPM, and 50% dissolved oxygen. […] Media were separated from cells at a rate of 1 L/min using the Centritech 100 ™ continuous-flow centrifuge (DuPont) operating at 200×g.
Protein Purification: Media (human and rat) were filtered through a Whatman 3 filter, and then loaded onto a 25 mL. Poros HS II (26 mm×47 mm) cation exchange column equilibrated in 25 mM sodium acetate at pH 5.5 (equilibration buffer). The column was washed until the absorbance reached the baseline value, and then the protein was eluted with a linear gradient from 0-2 M sodium chloride in the equilibration buffer. Column fractions were analyzed by SDS-PAGE, N-terminal sequencing, and mass spectrometry. Fractions containing the proform of cathepsin K were pooled and frozen at −80° C. The proform was concentrated in an Amicon Centriprep 10 and fractionated with a Superdex 75 column (26 mm×600 mm, Pharmacia) equilibrated in 400 mM sodium chloride, 25 mM sodium acetate at pH 5.5.
Cathepsin K Activation: The proform of cathepsin K was converted to mature cathepsin K by brief exposure to pH 4 in the presence of 5 mM L-cysteine. Typically, 5 mM L-cysteine was added to 10 mL of approximately 1 mg/mL procathepsin K. One mL of this solution was diluted ten-fold into 450 mM sodium acetate at pH 4.0 containing 5 mM L-cysteine. This solution was reacted at 23° C. for 2 min before neutralization with 2 mL, 1.8 M sodium acetate at pH 6.0. The neutralized sample was added to the remaining 9 mL of procathepsin K. The mixture was incubated at 4° C. for 2-3 days. The activated cathepsin K was chromatographed on a Poros HS II column as described above.
Potential inhibitors were evaluated using the progress curve method. Assays were carried out in the presence of variable concentrations of test compound. Reactions were initiated by addition of buffered solutions of inhibitor and substrate to enzyme. Data analysis was conducted according to one of two procedures depending on the appearance of the progress curves in the presence of inhibitors. […] Ki values were calculated from IC50 values using equation 2 assuming a competitive model.

Row | SMILES | IC50 [nM]
1 | CCCC[C@H](NC(=O)O[C@@H]1CN(C(=O)c2cc3ccccc3n2C)CC1(C)C)C(=O)C(=O)N[C@H](C)c1ccccc1 [Example 28, (3S)-4,4-Dimethyl-1-[(1-methyl-1H-indol-2-yl)carbonyl]pyrrolidinyl (1S)-1-(oxo{[(1R)-1-phenylethyl]amino}acetyl)pentylcarbamate] | 10 to 100
2 | CCCC[C@H](NC(=O)O[C@@H]1CN(c2nc3ccccc3s2)CC1(C)C)C(=O)C(=O)Nc1ccn[nH]1 [Example 81, (3S)-1-(1,3-Benzothiazol-2-yl)-4,4-dimethylpyrrolidinyl (1S)-1-[oxo(1H-pyrazol-5-ylamino)acetyl]pentylcarbamate] | 0.1 to 1
3 | CCCC[C@H](NC(=O)O[C@@H]1CN(C(=O)OCc2ccsc2)CC1(C)C)C(=O)C(=O)N[C@H](C)c1ccccc1 [Example 42, 3-Thienylmethyl (4S)-3,3-dimethyl-4-[({[(1S)-1-(oxo {[(1R)-1-phenylethyl]amino}acetyl)pentyl]amino}carbonyl)oxy]-1-pyrrolidinecarboxylate] | 10 to 100
4 | CCCC[C@H](NC(=O)O[C@@H]1CN(C(=O)Nc2ccc(C(F)(F)F)cc2)CC1(C)C)C(=O)C(=O)N[C@H](C)c1ccccc1 [Example 70, (3S)-4,4-Dimethyl-1-{[4-(trifluoromethyl)anilino]carbonyl}pyrrolidinyl (1S)-1-(oxo {[(1R)-1-phenylethyl]amino}acetyl)pentylcarbamate] | 1 to 10
5 | CCCC[C@H](NC(=O)O[C@@H]1CN(C(C)=O)CC1(C)C)C(=O)C(=O)N[C@H](C)c1ccccc1 [Example 10, (3S)-1-Acetyl-4,4-dimethylpyrrolidinyl (1S)-1-(oxo{[(1R)-1-phenylethyl]amino}acetyl)pentylcarbamate] | 10 to 100
6 | CCCC[C@H](NC(=O)O[C@@H]1CN(C(=O)Oc2ccc3ccccc3c2)CC1(C)C)C(=O)C(=O)N[C@H](C)c1ccccc1 [Example 60, 2-Naphthyl (4S)-3,3-dimethyl-4-[({[(1S)-1-(oxo {[(1R)-1-phenylethyl]amino}acetyl)pentyl]amino}carbonyl)oxy]-1-pyrrolidinecarboxylate] | 10 to 100
7 | CCCC[C@H](NC(=O)O[C@@H]1CN(C(=O)NCCc2ccccc2)CC1(C)C)C(=O)C(=O)N[C@H](C)c1ccccc1 [Example 65, (3S)-4,4-Dimethyl-1-{[(2-phenylethyl)amino]carbonyl}pyrrolidinyl (1S)-1-(oxo{[(1R)-1-phenylethyl]amino}acetyl)pentylcarbamate] | 1 to 10
8 | CCCC[C@H](NC(=O)OC1C(=O)N(C)CC1(C)C)C(=O)C(=O)N[C@H](C)c1ccccc1 (stereo partly drawn) [Example 7, 1,4,4-trimethyl-2-oxo-3-pyrrolidinyl (1S)-1-(oxo{[(1R)-1-phenylethyl]amino}acetyl)pentylcarbamate] | 10 to 100
9 | CCCC[C@H](NC(=O)O[C@@H]1CN(C(=O)OCc2c(C)noc2-c2cc(C)on2)CC1(C)C)C(=O)C(=O)N[C@H](C)c1ccccc1 [Example 50, [3-Methyl-5-(5-methyl-isoxazol-3-yl)-4-isoxazolyl]methyl (4S)-3,3-dimethyl-4-[({[(1S)-1-(oxo{[(1R)-1-phenylethyl]amino}acetyl)pentyl]amino}carbonyl)oxy]-1-pyrrolidinecarboxylate] | 10 to 100
10 | CCCC[C@H](NC(=O)O[C@@H]1CN(C(=O)Oc2ccc(-c3ccccc3)cc2)CC1(C)C)C(=O)C(=O)N[C@H](C)c1ccccc1 [Example 57, [1,1′-Biphenyl]-4-yl (4S)-3,3-dimethyl-4-[({[(1S)-1-(oxo{[(1R)-1-phenylethyl]amino}acetyl)pentyl]amino}carbonyl)oxy]-1-pyrrolidinecarboxylate] | 1 to 10

Other lines, results leading:

Row | IC50 [nM] | SMILES
11 | 10 to 100 | CCCC[C@H](NC(=O)O[C@@H]1CN(C(=O)CCCc2ccccc2)CC1(C)C)C(=O)C(=O)N[C@H](C)c1ccccc1 [Example 24, (3S)-4,4-Dimethyl-1-(4-phenylbutanoyl)pyrrolidinyl (1S)-1-(oxo {[(1R)-1-phenylethyl]amino}acetyl)pentylcarbamate]
12 | 10 to 100 | CCCC[C@H](NC(=O)O[C@@H]1CN(S(=O)(=O)Cc2ccccc2)CC1(C)C)C(=O)C(=O)N[C@H](C)c1ccccc1 [Example 78, (3S)-1-(Benzylsulfonyl)-4,4-dimethylpyrrolidinyl (1S)-1-(oxo{[(1R)-1-phenylethyl]amino}acetyl)pentylcarbamate]
13 | 10 to 100 | CCCC[C@H](NC(=O)OC1C(=O)N(C(=O)OCc2ccccc2)CC1(C)C)C(=O)C(=O)N[C@H](C)c1ccccc1 (stereo partly drawn) [Example 5, Benzyl 4,4-dimethyl-2-oxo-3-[({[(1S)-1-(oxo{[(1R)-1-phenylethyl]amino}acetyl)pentyl]amino}carbonyl)oxy]-1-pyrrolidinecarboxylate]
14 | 10 to 100 | CCCC[C@H](NC(=O)O[C@@H]1CN(C(=O)c2cc3ccccc3[nH]2)CC1(C)C)C(=O)C(=O)N[C@H](C)c1ccccc1 [Example 32, (3S)-1-(1H-Indol-2-ylcarbonyl)-4,4-dimethylpyrrolidinyl (1S)-1-(oxo {[(1R)-1-phenylethyl]amino}acetyl)pentylcarbamate]
15 | 100 to 1000 | CCCC[C@H](NC(=O)O[C@@H]1CN(C(=O)OCC2CCCCO2)CC1(C)C)C(=O)C(=O)N[C@H](C)c1ccccc1 (stereo partly drawn) [Example 48, Tetrahydro-2H-pyran-2-ylmethyl (4S)-3,3-dimethyl-4-[({[(1S)-1-(oxo{[(1R)-1-phenylethyl]amino}acetyl)pentyl]amino}carbonyl)oxy]-1-pyrrolidinecarboxylate]
16 | 10 to 100 | CCCC[C@H](NC(=O)OC1C(=O)N(Cc2ccccc2)CC1(C)C)C(=O)C(=O)N[C@H](C)c1ccccc1 (stereo partly drawn) [Example 4, 1-Benzyl-4,4-dimethyl-2-oxo-3-pyrrolidinyl (1S)-1-(oxo{[(1R)-1-phenylethyl]amino}acetyl)pentylcarbamate]
17 | 1 to 10 | CCCC[C@H](NC(=O)O[C@@H]1CN(C(=O)c2ccc3c(c2)OCO3)CC1(C)C)C(=O)C(=O)N[C@H](C)c1ccccc1 [Example 16, (3S)-1-(1,3-Benzodioxol-5-ylcarbonyl)-4,4-dimethylpyrrolidinyl (1S)-1-(oxo{[(1R)-1-phenylethyl]amino}acetyl)pentylcarbamate]
18 | 10 to 100 | CCCC[C@H](NC(=O)O[C@@H]1CN(C(=O)O[C@@H]2CCOC2)CC1(C)C)C(=O)C(=O)N[C@H](C)c1ccccc1 [Example 56, (3R)-Tetrahydro-3-furanyl (4S)-3,3-dimethyl-4-[({[(1S)-1-(oxo{[(1R)-1-phenylethyl]amino}acetyl)pentyl]amino}carbonyl)oxy]-1-pyrrolidinecarboxylate]
19 | 10 to 100 | CCCC[C@H](NC(=O)O[C@@H]1CN(C(=O)Cc2csc(-c3cnccn3)n2)CC1(C)C)C(=O)C(=O)N[C@H](C)c1ccccc1 [Example 38, (3S)-4,4-Dimethyl-1-{[2-(2-pyrazinyl)-1,3-thiazol-4-yl]acetyl-}pyrrolidinyl (1S)-1-(oxo{[(1R)-1-phenylethyl]amino}acetyl)pentylcarbamate]
20 | 10 to 100 | CCCC[C@H](NC(=O)O[C@@H]1CN(C(=O)N2CCCC2)CC1(C)C)C(=O)C(=O)N[C@H](C)c1ccccc1 [Example 74, (3S)-4,4-Dimethyl-1-(1-pyrrolidinylcarbonyl)pyrrolidinyl (1S)-1-(oxo{[(1R)-1-phenylethyl]amino}acetyl)pentylcarbamate]
